Measured values: PMC10197068 (Bioconjugate Chemistry, 2023)
Several values for one entry are separate records, joined by “and”; a condition that tells them apart may be missing. Equal entries are not always repeated.

What was measured:
[1] = system: G2T6 (Na+) dimeric HTelo G4 DNA, AGGG(TTAGGG)3(TTA)5(TTAGGG)4; assay: CD melting with G2T6 (Na+); type: binding, human; conditions: for ΔTm G2T6 (Na+): CD melting at 295 nm, 25 to 95 °C at 2 °C/min, 100 mM NaCl, 10 mM Li cacodylate, pH 7.3, [G4 unit] 6 μM (3 μM dimeric sequence), [salphen unit] 12 μM
Experimental: (§1) Next, the DNA binding properties of the monomeric and dimeric compounds were studied. […] The following notation is used: […] The CD melting experiments were conducted solely with Na^+ stabilized DNA, which forms an antiparallel topology in solution (cf., in the presence of K^+ a mixture of topologies is observed). During the assay the temperature was increased from 25 to 95 °C upon which the intensity of signals with negative ellipticity at ca. 265 nm and positive ellipticity at ca. 295 (characteristic of an antiparallel G4 structure) decreased-see Figure 4a. This indicates the expected unfolding of the G4 DNA structure as the temperature increases. The changes in intensity were subsequently used to produce the corresponding melting curves (Figure 4b) for each sequence in the absence and presence of the different compounds under study. From these curves, the ΔTm values for the different sequences and compounds were determined, and the results are summarized in Figure 4c (see Supplementary Table 1 for values). […] G-Quadruplex oligonucleotides were purchased from Eurogentec (Belgium), and CT-DNA was purchased from Sigma-Aldrich. […] Prior to use, the DNA stock solutions were annealed by heating at 95 °C for 5 min and then cooling to room temperature overnight. Experiments were carried out on a Jasco J-810 spectrophotometer using a 1 cm quartz cuvette. Temperature was controlled using a Peltier module. The signal at 295 nm was monitored as temperature was increased for 25 to 95 °C at a rate of 2 °C/min. CD melting experiments were carried out with the appropriate G4 DNA (100 mM NaCl, 10 mM Li cacodylate, pH 7.3). Sample preparation was carried out by combining stock solutions of ligand and DNA in the appropriate buffer. […] Melting temperatures were obtained by curve fitting in Graphpad Prism 8. The data was normalized and fitted to a variable slope Hill equation, and the melting temperature was defined at the temperature at which y = 0.5.

[2] = system: G1 (Na+) monomeric HTelo G4 DNA, AGGG(TTAGGG)3; assay: CD melting with G1 (Na+); type: binding, human; conditions: CD melting at 295 nm, 25 to 95 °C at 2 °C/min; 100 mM NaCl, 10 mM Li cacodylate, pH 7.3; [G4 unit] 6 μM, [salphen unit] 12 μM
Experimental: as §1

[3] = system: G2T1 (Na+) dimeric HTelo G4 DNA, AGGG(TTAGGG)7; assay: CD melting with G2T1 (Na+); type: binding, human; conditions: for ΔTm G2T1 (Na+): CD melting at 295 nm, 25 to 95 °C at 2 °C/min, 100 mM NaCl, 10 mM Li cacodylate, pH 7.3, [G4 unit] 6 μM (3 μM dimeric sequence), [salphen unit] 12 μM
Experimental: as §1

[4] = system: G2T1 (Na+) dimeric HTelo G4 DNA; assay: Emission titration with G2T1 (Na+); type: binding, human; conditions: Table S2, unit not given, ligand 2 μM, 100 mM NaCl, 10 mM Li cacodylate, pH 7.3, exc 440 nm, em 590 nm, triplicate
Experimental: (§2) Next, emission titrations were carried out with the emissive Pt^II compounds M2 and D3–8 and G4/duplex DNA to obtain association constants. Both Na^+ and K^+ stabilized monomeric and dimeric G4 DNA were investigated. Additionally, titrations were carried out with CT-DNA to evaluate the selectivity for G4 versus duplex DNA. Figure 5 summarizes the obtained results (see Figures S24–S37 and Table S2 for a full set of titration data). First discussed are the experiments conducted in Na^+ buffer, in which the G4 topology formed is antiparallel.[41] […] As discussed previously, this could potentially be caused by a “sandwiched” binding mode in which the metal-salphen complex sits between two G-quadruplex units. For dimeric metal-salphen complexes D3–8, however, there are several differences when compared to the CD melting studies. […] Upon increasing the linker length to a two-amino-acid sequence (RR and KK for compounds D4 and D5, respectively), larger Ka values were obtained with minimal change to the pattern of selectivity. […] Increasing the linker length to an eight-amino-acid sequence (RRRRRRRR) led to a similar stabilization of G2T6, while G1 stabilization increased.
(§3) G-Quadruplex oligonucleotides were purchased from Eurogentec (Belgium), and CT-DNA was purchased from Sigma-Aldrich. Stock solutions were prepared via dilution in the appropriate buffers to concentrations of 300–400 μM determined by UV–vis measurements in which increasing amounts of DNA were added to a cuvette and the absorbance at 260 nm recorded using an Agilent Cary UV 60 spectrometer. Prior to use, the DNA stock solutions were annealed by heating at 95 °C for 5 min and then cooling to room temperature overnight.
(§4) Experiments were carried out using a BMG Clariostar Microplate reader with Greiner Bio-One half-volume (100 μL/well) plates. Excitation was carried out at 440 nm and recorded from 500 to 700 nm in addition to a matrix scan at 590 nm. Titrations were carried out using G1, G2T1, and G2T6 (Na^+) G4 DNA (100 mM NaCl, 10 mM Li cacodylate, pH 7.3); G1, G2T1, and G2T6 (K^+) G4 DNA (100 mM KCl, 10 mM Li cacodylate, pH 7.3); and CT-DNA (100 mM KCl, 10 mM Li cacodylate, pH 7.3). Ligand concentration was kept constant at 2 μM, and the following DNA equivalents were tested: 0, 0.1, 0.2, 0.3, 0.4, 0.5, 0.75, 1, 1.5, 2, 3, and 5 (for CT-DNA 10× base pair equivalents were used, i.e., 1 to 50 BPE). Sample preparation was carried out by preparing stock solutions of double concentration ligand (4 μM) and DNA in the appropriate buffer, before 50 μL of each was added to the appropriate well and mixed. Experiments were conducted in triplicate and binding constants were obtained by curve fitting in Graphpad Prism 8 using eq 1.[46] [drawing 1] 1
(§5) Fluorescence response (y) was fitted against DNA concentration (x); R is the machine response, K is the association constant of ligand and DNA, L is the concentration of ligand, and n is the number of binding sites per DNA. The values of L and n were varied so that that the L was equal to the number of salphen units and n was equal to the number of G4 faces per DNA. The matrix scan results were used to plot the titration curves and 500–700 nm scan results were used to confirm that expected curve shapes and shifts were observed.

[5] = system: G2T1 (K+) dimeric HTelo G4 DNA; assay: Emission titration with G2T1 (K+); type: binding, human; conditions: Table S2, unit not given, ligand 2 μM, 100 mM KCl, 10 mM Li cacodylate, pH 7.3, exc 440 nm, em 590 nm, triplicate
Experimental: as §2, §3, §4, §5

[6] = system: G2T6 (Na+) dimeric HTelo G4 DNA; assay: Emission titration with G2T6 (Na+); type: binding, human; conditions: Table S2, unit not given, ligand 2 μM, 100 mM NaCl, 10 mM Li cacodylate, pH 7.3, exc 440 nm, em 590 nm, triplicate
Experimental: as §2, §3, §4, §5

[7] = system: G1 (K+) monomeric HTelo G4 DNA; assay: Emission titration with G1 (K+); type: binding, human; conditions: Table S2, unit not given, ligand 2 μM, 100 mM KCl, 10 mM Li cacodylate, pH 7.3, exc 440 nm, em 590 nm, triplicate
Experimental: as §2, §3, §4, §5

[8] = system: G2T6 (K+) dimeric HTelo G4 DNA; assay: Emission titration with G2T6 (K+); type: binding, human; conditions: Table S2, unit not given, ligand 2 μM, 100 mM KCl, 10 mM Li cacodylate, pH 7.3, exc 440 nm, em 590 nm, triplicate
Experimental: as §2, §3, §4, §5

[9] = system: G1 (Na+) monomeric HTelo G4 DNA; assay: Emission titration with G1 (Na+); type: binding, human; conditions: Table S2, unit not given, ligand 2 μM, 100 mM NaCl, 10 mM Li cacodylate, pH 7.3, exc 440 nm, em 590 nm, triplicate
Experimental: as §2, §3, §4, §5

CT-DNA (duplex DNA) = assay: Emission titration with duplex DNA; type: binding
Experimental: Next, emission titrations were carried out with the emissive Pt^II compounds M2 and D3–8 and G4/duplex DNA to obtain association constants. Both Na^+ and K^+ stabilized monomeric and dimeric G4 DNA were investigated. Additionally, titrations were carried out with CT-DNA to evaluate the selectivity for G4 versus duplex DNA. Figure 5 summarizes the obtained results (see Figures S24–S37 and Table S2 for a full set of titration data). First discussed are the experiments conducted in Na^+ buffer, in which the G4 topology formed is antiparallel.[41] […] As discussed previously, this could potentially be caused by a “sandwiched” binding mode in which the metal-salphen complex sits between two G-quadruplex units. For dimeric metal-salphen complexes D3–8, however, there are several differences when compared to the CD melting studies. […] Upon increasing the linker length to a two-amino-acid sequence (RR and KK for compounds D4 and D5, respectively), larger Ka values were obtained with minimal change to the pattern of selectivity. […] Increasing the linker length to an eight-amino-acid sequence (RRRRRRRR) led to a similar stabilization of G2T6, while G1 stabilization increased. […]
G-Quadruplex oligonucleotides were purchased from Eurogentec (Belgium), and CT-DNA was purchased from Sigma-Aldrich. Stock solutions were prepared via dilution in the appropriate buffers to concentrations of 300–400 μM determined by UV–vis measurements in which increasing amounts of DNA were added to a cuvette and the absorbance at 260 nm recorded using an Agilent Cary UV 60 spectrometer. […]
Experiments were carried out using a BMG Clariostar Microplate reader with Greiner Bio-One half-volume (100 μL/well) plates. Excitation was carried out at 440 nm and recorded from 500 to 700 nm in addition to a matrix scan at 590 nm. […]
Fluorescence response (y) was fitted against DNA concentration (x); R is the machine response, K is the association constant of ligand and DNA, L is the concentration of ligand, and n is the number of binding sites per DNA. […]

Compound | ΔTm G2T6 (Na+) [1] | ΔTm G1 (Na+) [2] | ΔTm G2T1 (Na+) [3] | Association constant G2T1 (Na+), mean [4] | Association constant G2T1 (K+), mean [5] | Association constant G2T6 (Na+), mean [6] | Association constant G1 (K+), mean [7] | Association constant G2T6 (K+), mean [8] | Association constant G1 (Na+), mean [9] | Ka for duplex DNA (CT-DNA (duplex DNA); CT-DNA up to 50 base pair equivalents, 100 mM KCl, 10 mM Li cacodylate, pH 7.3, ligand 2 μM) | fold reduction in duplex DNA binding (CT-DNA (duplex DNA); compared with monomeric complex M2) | fold increase in stabilization of G2T6 ([1]; ΔTm of D7 relative to D3) | fold increase in stabilization of G2T1 ([3]; ΔTm of D7 relative to D4)
C[N+](C)(C)CCOc1ccc2c(c1)[O][Ni][O]c1cc(OCC[N+](C)(C)C)ccc1C=Nc1cc(C(=O)NCc3cn(CCOCCOCCn4cc(CNC(=O)c5ccc6c(c5)N=Cc5ccc(OCC[N+](C)(C)C)cc5[O][Ni][O]c5cc(OCC[N+](C)(C)C)ccc5C=N6)nn4)nn3)ccc1N=C2.F[P-](F)(F)(F)(F)F.F[P-](F)(F)(F)(F)F.F[P-](F)(F)(F)(F)F.F[P-](F)(F)(F)(F)F [Compound D2] | 11.14 °C | 2.66 °C | 13.80 °C | – | – | – | – | – | – | – | – | – | –
C[N+](C)(C)CCOc1ccc2c(c1)[O][Pt][O]c1cc(OCC[N+](C)(C)C)ccc1C=Nc1cc(C(=O)NCc3cn(CCOCCn4cc(CNC(=O)c5ccc6c(c5)N=Cc5ccc(OCC[N+](C)(C)C)cc5[O][Pt][O]c5cc(OCC[N+](C)(C)C)ccc5C=N6)nn4)nn3)ccc1N=C2 [Compound D3] | 6.43 °C and 6.4 °C | 3.02 °C and 3.0 °C | 15.29 °C | 0.24 | 0.13 | 0.19 | 0.17 | 0.16 | 0.17 | 5.0 × 10^3 M^–1 | 10 fold | – | –
C[N+](C)(C)CCOc1ccc2c(c1)[O][Ni][O]c1cc(OCC[N+](C)(C)C)ccc1C=Nc1ccccc1N=C2 [Compound M1, reference compound] | 18.77 °C | 12.26 °C | 16.58 °C and 16 °C | – | – | – | – | – | – | – | – | – | –
RKKR [Compound D7] | 13.81 °C and 13.8 °C | 2.6 °C | 16.33 °C and 16.3 °C | 0.36 | 0.18 | 0.69 | 0.39 | 0.42 | 0.21 | – | – | 2.1 fold | 1.1 fold
RRRR [Compound D6] | 13.27 °C | 3.49 °C | 14.83 °C | 0.29 | 0.18 | 0.99 | 0.28 | 0.52 | 0.07 | – | – | – | –
